Reference: EP0356325A1, “Pharmaceutical composition containing a slightly water-soluble active substance and at least a glyceride gelled by at least a cellulose polymer” (Aiache, Jean-Marc, priority 1988, dated 1990)

Assay: Doxycycline base content and epimer contents after storage (Tableau 2)
Type: physicochemical
Text: En outre, le tableau 2 présente une comparaison des teneurs en épimères (en p. cent) de deux préparations contenant la doxycycline (sous forme hyclate), avec le principe actif ayant servi à leur formulation. La formulation testée correspond à un produit stable.

[1] = après 1 mois de conservation à 37°C (étuve sèche), p.cent of area under chromatographic peaks
[2] = après 3 mois de conservation à température ambiante, p.cent of area under chromatographic peaks

- Doxycycline base (après 1 mois de conservation à 37°C (étuve sèche)): 858,2 mg/g
- 6 Epidoxycycline [1]: 0,96 p.cent
- Déméclocycline [1]: 1,99 p.cent
- Oxytétracycline [1]: 0,65 p.cent
- Doxycycline base (après 3 mois de conservation à température ambiante): 899,0 mg/g
- 6 Epidoxycycline [2]: 0,30 p.cent
- Déméclocycline [2]: 1,81 p.cent
- Oxytétracycline base [2]: 0,43 p.cent
Structure (SMILES): C[C@H]1c2cccc(O)c2C(=O)C2=C(O)[C@]3(O)C(=O)C(C(N)=O)=C(O)[C@@H](N(C)C)[C@@H]3[C@@H](O)[C@@H]21 [Doxycycline hyclate, hyclate de doxycycline]
